In patent US20040176431A1, “Antiproliferative 2-(sulfo-phenyl)-aminothiazole derivatives and pharmaceutical compositions, and methods for their use” (Pfizer, Inc., priority 2003, published 2004) one finds Ki, IC50 and IC90 data, which are given here for 17 compounds.

Broadly, the IC50 is the midpoint of a concentration-inhibition curve. Usually IC90 stands for the concentration needed for an effect of 90%.

The target of one experiment is T1, CDK2/cyclin A (Homo sapiens, UniProt P24941).
T1 construct: made in house; host or cells: CDK2: insect cells (baculovirus); cyclin A: E. coli, then limited proteolysis
Kind of experiment: Inhibition of CDK2/Cyclin A retinoblastoma kinase activity. The settings on record: apparent Ki, Rb fragment substrate. In kind it is biochemical. The procedure: Cyclin-dependent kinase activity was measured by quantifying the enzyme-catalyzed, time-dependent incorporation of radioactive phosphate from [^32P]ATP or [^33P]ATP into a protein substrate. Unless noted otherwise, assays were performed in 96-well plates in a total volume of 50 μL, in the presence of 10 mM HEPES (N-[2-hydroxyethyl]piperazine-N′-[2-ethanesulfonic acid]) (pH 7.4), 10 mM MgCl2, 25 μM adenosine triphosphate (ATP), 1 mg/mL ovalbumin, 5 μg/mL leupeptin, 1 mM dithiothreitol, 10 mM β-glycerophosphate, 0.1 mM sodium vanadate, 1 mM sodium fluoride, 2.5 mM ethylene glycol-bis(β-aminoethyl ether)-N,N,N′N′-tetraacetic acid (EGTA), 2% (v/v) dimethylsulfoxide, and 0.03-0.4 μCi [^32/33P]ATP per reaction. Reactions were initiated with enzyme, incubated at 30° C., and terminated after 20 minutes by the addition of ethylenediaminetetraacetic acid (EDTA) to 250 mM. The phosphorylated substrate was then captured on a nitrocellulose or phosphocellulose membrane using a 96-well filtration manifold, and unincorporated radioactivity was removed by repeated washing with 0.85% phosphoric acid. Radioactivity was quantified by exposing the dried membranes to a phosphorimager.
Inhibition was measured relative to control wells that contained all reaction components including 2% (v/v) DMSO but no compound, after subtraction of background radioactivity measured in the absence of enzyme. Apparent Ki values of discrete compounds were measured by assaying enzyme activity in the presence of different inhibitor compound concentrations and subtracting the background radioactivity measured in the absence of enzyme. The kinetic parameters (kcat, Km for ATP) were measured for each enzyme under the usual assay conditions by determining the dependence of initial rates on ATP concentration. Inhibition data were fit to an equation for competitive inhibition using Kaleidagraph (Synergy Software), or were fit to an equation for competitive tight-binding inhibition using the software KineTic (BioKin, Ltd.).
CDK2 was purified using published methodology (Rosenblatt et al., J. Mol. Biol., 230, 1317-1319 (1993)) from insect cells that had been infected with a baculovirus expression vector. Cyclin A was purified from E. coli cells expressing full-length recombinant cyclin A, and a truncated cyclin A construct was generated by limited proteolysis and purified as described previously (Jeffrey et al., Nature, 376, 313-320 (1995)). A complex of CDK2 and proteolyzed cyclin A was prepared and purified by gel filtration. The substrate for this assay was the same Rb substrate fragment used for the CDK4 assays, and the methodology of the CDK2/delta cyclin A and the CDK4/delta cyclin D3 assays was essentially the same, except that CDK2 was present at 10 nM or 19 nM. The duration of the assay was 60 or 75 minutes, during which the time-dependence of product formation was linear and initial rate conditions were met.

A further experiment has as its target T2, CDK4/cyclin D3 (Homo sapiens, UniProt P11802).
T2 construct: made in house; host or cells: insect cells (baculovirus co-infection)
Put plainly: Inhibition of CDK4/Cyclin D retinoblastoma kinase activity. Type of experiment: biochemical. Particulars: apparent Ki, Rb fragment substrate. The method, boiled down: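 Apparent Ki derived by fitting activity at varied inhibitor concentrations to competitive (or competitive tight-binding) inhibition equations, background without enzyme subtracted. Radiometric filter-binding read-out of Rb(386-928) phosphorylation by 5 nM CDK4/cyclin D3(1-264); 25 μM ATP, pH 7.4, 2% DMSO, 30° C., 20 min, extended to 60 min for tight binders.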

A further experiment deals with HCT-116 cells. Kind of experiment: Inhibition of cell growth (MTT tetrazolium salt assay). In kind it is cell-based. The settings on record: Homo sapiens; for IC50: read-out: HCT116 IC50; for IC90: read-out: HCT116 IC90. The procedure: Inhibition of cell growth was measured using the tetrazolium salt assay, which is based on the ability of viable cells to reduce 3-(4,5-dimethylthiazol-2-yl)-2,5-[2H]-diphenyltetrazolium bromide (MTT) to formazan (Mosmann, J. Immunol. Meth., 65, 55-63 (1983)). The water-insoluble purple formazan product was then detected spectrophotometrically. HCT-116 cells were grown in 96-well plates. Cells were plated in the appropriate medium at a volume of 135 μl/well in either McCoy's 5A Medium. Plates were incubated for four hours before addition of inhibitor compounds. Different concentrations of inhibitor compounds were added in 0.5% (v/v) dimethylsulfoxide (15 μL/well), and cells were incubated at 37° C. (5% CO2) for four to six days (depending on cell type). At the end of the incubation, MTT was added to a final concentration of 0.2 mg/mL, and cells were incubated for 4 hours more at 37° C. After centrifugation of the plates and removal of medium, the absorbance of the formazan (solubilized in dimethylsulfoxide) was measured at 540 nm. […] All results were compared to control cells treated only with 0.5% (v/v) dimethylsulfoxide.

T2 sequence (P11802 whole entry): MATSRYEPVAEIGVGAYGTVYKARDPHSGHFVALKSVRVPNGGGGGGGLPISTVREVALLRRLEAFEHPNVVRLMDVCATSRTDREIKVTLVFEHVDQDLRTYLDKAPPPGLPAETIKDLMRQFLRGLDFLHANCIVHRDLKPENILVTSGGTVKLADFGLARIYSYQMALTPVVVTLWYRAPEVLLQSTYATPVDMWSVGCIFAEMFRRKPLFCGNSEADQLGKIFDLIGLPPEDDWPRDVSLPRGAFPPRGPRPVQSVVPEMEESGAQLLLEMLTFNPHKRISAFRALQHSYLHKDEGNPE
T2 sequence (P30281 1-264 partner limits assumed): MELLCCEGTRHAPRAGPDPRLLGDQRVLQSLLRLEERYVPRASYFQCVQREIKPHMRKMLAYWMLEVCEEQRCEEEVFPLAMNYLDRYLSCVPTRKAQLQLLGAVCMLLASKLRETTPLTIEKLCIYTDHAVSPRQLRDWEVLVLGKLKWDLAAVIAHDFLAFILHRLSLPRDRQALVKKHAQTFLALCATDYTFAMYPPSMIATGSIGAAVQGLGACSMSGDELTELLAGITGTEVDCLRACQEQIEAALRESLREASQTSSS

For the compound `Nc1nc(Nc2ccc(S(=O)(=O)NCCOCCO)cc2)sc1C(=O)c1c(F)cccc1F` [Example A(6), 4-[4-Amino-5-(2,6-difluoro-benzoyl)-thiazol-2-ylamino]-N-[2-(2-hydroxy-ethoxy)-ethyl]-benzenesulfonamide], the Ki at CDK2/cyclin A came out at 5.3 nM. Also, on CDK4/cyclin D3, the Ki was found to be 26 nM. Further, in the experiment on HCT-116 cells, the IC50 came out at 1900 nM and the IC90 turned out to be 4200 nM.
For `CC(CCCC(C)(C)O)NS(=O)(=O)c1ccc(Nc2nc(N)c(C(=O)c3c(F)cc(F)cc3F)s2)cc1` (centres unmarked) [B(2), 4-[4-Amino-5-(2,4,6-trifluoro-benzoyl)-thiazol-2-ylamino]-N-(5-hydroxy-1,5-dimethyl-hexyl)-benzenesulfonamide], the Ki at CDK2/cyclin A is 1.3 nM. Besides, the Ki on CDK4/cyclin D3 worked out at 6.2 nM. Further, in the experiment with HCT-116 cells, the IC50 worked out at 980 nM and the IC90 was 2300 nM.
For `Nc1nc(Nc2ccc(S(=O)(=O)NCCCc3ccccc3)cc2)sc1C(=O)c1c(F)cccc1F` [A(32), 4-[4-Amino-5-(2,6-difluoro-benzoyl)-thiazol-2-ylamino]-N-(3-phenyl-propyl)-benzenesulfonamide], in that order: less than 5 nM, 16 nM, 140 nM and 380 nM.
On the same counts, the results for `NC(=O)C[S+]([O-])c1ccc(Nc2nc(N)c(C(=O)c3c(Cl)cccc3Cl)s2)cc1` (centres unmarked) [Z(2), 2-(4-{4-Amino-5-(2,6-dichlorobenzoyl)-thiazol-2-ylamino}-benzenesulfinyl)-acetamide] are 62 nM, 15 nM, 18000 nM and more than 25000 nM.
For `Nc1nc(Nc2ccc(S(=O)(=O)NCc3cccs3)cc2)sc1C(=O)c1c(F)cccc1F` [A(27), 4-[4-Amino-5-(2,6-difluoro-benzoyl)-thiazol-2-ylamino]-N-thiophen-2-ylmethyl-benzenesulfonamide], in that order: 4.6 nM, 57 nM, 400 nM and 1000 nM.
For the compound `CN(C)CCCNS(=O)(=O)c1ccc(Nc2nc(N)c(C(=O)c3c(F)cccc3F)s2)cc1` [Example A(21), 4-[4-Amino-5-(2,6-difluoro-benzoyl)-thiazol-2-ylamino]-N-(3-dimethylamino-propyl)-benzenesulfonamide], the Ki on CDK2/cyclin A was found to be 14 nM. Further, the Ki at CDK4/cyclin D3 was determined as 6.8 nM. For the same compound, in the experiment with HCT-116 cells, the IC50 came to 1800 nM and the IC90 worked out at 4400 nM.
For `Nc1nc(Nc2ccc(S(=O)(=O)NCC3CCCNC3)cc2)sc1C(=O)c1c(F)cccc1F` (centres unmarked) [D(1), 4-[4-Amino-5-(2,6-difluoro-benzoyl)-thiazol-2-ylamino]-N-piperidin-3-ylmethyl-benzenesulfonamide], in that order: 18 nM, 12 nM, 17000 nM and more than 25000 nM.
For `CSc1ccc(Nc2nc(N)c(C(=O)c3c(Cl)cccc3Cl)s2)cc1` [R(2), 4-Amino-5-(2,6-dichlorobenzoyl)-2-(4-methylthio-phenylamino)-thiazole], in that order: 250 nM, 30 nM, 12000 nM and more than 25000 nM.
For `CN(C)CCNS(=O)(=O)c1ccc(Nc2nc(N)c(C(=O)c3c(F)cccc3F)s2)cc1` [Example A(2), 4-[4-Amino-5-(2,6-difluoro-benzoyl)-thiazol-2-ylamino]-N-(2-dimethylamino-ethyl)-benzenesulfonamide], in that order: 4.5 nM, 7.5 nM, 360 nM and 1100 nM.
`Nc1nc(Nc2ccc(S(=O)(=O)NCCNc3ccccc3)cc2)sc1C(=O)c1c(F)cccc1F` [Example A(9), 4-[4-Amino-5-(2,6-difluoro-benzoyl)-thiazol-2-ylamino]-N-(2-phenylamino-ethyl)-benzenesulfonamide]: the Ki at CDK2/cyclin A was less than 5 nM. Also, the Ki at CDK4/cyclin D3 was less than 5 nM. Further, in the experiment with HCT-116 cells, the IC50 came to 140 nM and the IC90 was determined as 400 nM.
Consider `CNCCNS(=O)(=O)c1ccc(Nc2nc(N)c(C(=O)c3c(F)cccc3F)s2)cc1` [D(3), 4-[4-Amino-5-(2,6-difluoro-benzoyl)-thiazol-2-ylamino]-N-(2-methylamino-ethyl)-benzenesulfonamide], for which the Ki on CDK2/cyclin A came to 9.4 nM. For the same compound, at CDK4/cyclin D3, the Ki worked out at 5.7 nM. In the experiment on HCT-116 cells, the IC50 was 2900 nM and the IC90 was more than 5000 nM.
On the same counts, the results for `CC(C)CCCCNS(=O)(=O)c1ccc(Nc2nc(N)c(C(=O)c3c(F)cccc3F)s2)cc1` [A(37), 4-[4-Amino-5-(2,6-difluoro-benzoyl)-thiazol-2-ylamino]-N-(5-methyl-hexyl)-benzenesulfonamide] are 4.9 nM, 35 nM, 1200 nM and 3800 nM.
For `Nc1nc(Nc2ccc(S(=O)(=O)NCC3CCCCN3)cc2)sc1C(=O)c1c(F)cccc1F` (centres unmarked) [D(2), 4-[4-Amino-5-(2,6-difluoro-benzoyl)-thiazol-2-ylamino]-N-piperidin-2-ylmethyl-benzenesulfonamide], in that order: 45 nM, 20 nM, 4000 nM and 9200 nM.
On the same counts, the results for `NC(=O)C[S+]([O-])c1cccc(Nc2nc(N)c(C(=O)c3c(Cl)cccc3Cl)s2)c1` (centres unmarked) [Z(5), 2-{3-[4-Amino-5-(2,6-dichloro-benzoyl)-thiazol-2-ylamino]-benzenesulfinyl}-acetamide] are 330 nM, 230 nM, more than 25000 nM and more than 25000 nM.
For `Nc1nc(Nc2ccc(S(=O)(=O)NCCCN3CCCC3=O)cc2)sc1C(=O)c1c(F)cccc1F` [A(25), 4-[4-Amino-5-(2,6-difluoro-benzoyl)-thiazol-2-ylamino]-N-[3-(2-oxo-pyrrolidin-1-yl)-propyl]-benzenesulfonamide], the Ki on CDK2/cyclin A worked out at 4.1 nM. Moreover, on CDK4/cyclin D3, the Ki is 16 nM. In the experiment on HCT-116 cells, the IC50 was found to be 3400 nM and the IC90 turned out to be 5000 nM.
On to `Cc1ccc(CCNS(=O)(=O)c2ccc(Nc3nc(N)c(C(=O)c4c(F)cccc4F)s3)cc2)cc1` [Example A(18), 4-[4-Amino-5-(2,6-difluoro-benzoyl)-thiazol-2-ylamino]-N-(2-p-tolyl-ethyl)-benzenesulfonamide], for which, at CDK2/cyclin A, the Ki was found to be 5.8 nM. The Ki at CDK4/cyclin D3 amounted to 24 nM. In the experiment on HCT-116 cells, the IC50 worked out at 1800 nM and the IC90 turned out to be 3700 nM.
For `CC(C)OCCNS(=O)(=O)c1ccc(Nc2nc(N)c(C(=O)c3c(F)cccc3F)s2)cc1` [Example A(17), 4-[4-Amino-5-(2,6-difluoro-benzoyl)-thiazol-2-ylamino]-N-(2-isopropoxy-ethyl)-benzenesulfonamide], in that order: 2 nM, 14 nM, 140 nM and 450 nM.
